Like-named read-outs stand apart in the source and are kept apart here.

One data set relates to naive mice. The class given is in vivo, mouse. The method, then: (§1) Behavioral Assessment for Scratching (Itch) and Wiping (Pain). Mice were shaved on the cheek or nape after a brief anesthesia with isoflurane. Before experiments, mice were habituated in small plastic chambers (14×18×12 cm) daily for two days. The room temperature and humidity remained stable for all the experiments. […] After the injection, the number of scratches in 60 min was counted. A scratch was counted when a mouse lifted its hind paw to scratch the shaved region and returned the paw to the floor or to the mouth. A bout of wiping was defined as a continuous wiping movement with a forepaw directing at the area of the injection area (Shimada and LaMotte, Pain 2008, 139, 681-687). Scratching and wiping behavior was videoed for 30 min or 60 min using Sony HDR-CX610 camera. The video was subsequently played back offline and the numbers of scratches and wipes were quantified in a blinded manner.

The target of data set [1] is T1, hTRPA1 (Homo sapiens, UniProt O75762). Description: RNA pull-down assay and immunoblotting. In kind it is binding. The protocol: RNA Pull-Down Assay and Immunoblotting. hTRPA1-expressing HEK293 cells of equal amount (5×10^6) were plated onto 60 mm dishes, and 24 hr later, these cells were incubated with biotin-conjugated miR-711 or miR-711 (m6) in extracellular solution containing 140 mM NaCl, 5 mM KCl, 2 mM CaCl2, 1 mM MgCl2, 10 mM HEPES, and 10 mM glucose, adjusted to pH 7.4 for 15 min at 37° C. with 5% CO2. For crosslinking, 1% formaldehyde (vol/vol) was added at 37° C. for 10 min, then 12.5% glycine was applied to stop crosslinking by 5 min incubation at room temperature. Then the cells were collected and sonicated with ultrosonic probe sonicator (80% output, 5 s on and 10 s off) in 1 mL lysis buffer (1% Triton X-100, 50 mM Tris-HCl, 150 mM NaCl, 5 mM EDTA, pH7.4) on ice for 2 min. We then centrifuged the lysate at 13,000 rpm for 10 min at 4° C. and took 50 μL supernatant as lysate control. The remaining supernatant was added 20 μL streptadvilin agrose beads and incubated overnight. The pellets were collected after centrifuge at 6000 rmp for 30 s. For competing assay, miR-711 (10-50 μM) or mutant miR-711 (m6, 10-50 μM) were added 15 min before the incubation with biotin-conjugated miR-711 (10 μM). For immunoblotting, the lysates or beads were incubated in SDS-PAGE loading buffer for 30 min at 50° C., and supernatant was collected after centrifugation at 13000 rpm and decrosslink at 99° C. for 20 min. The samples were separated on an SDS-PAGE gel, transferred, and probed with TRPA1 antibody (1:1000; Alomone labs). The immunoreactive bands were detected with horseradish peroxidase-conjugated secondary antibody, visualized with enhanced chemiluminescence (Thermo scientific, Pittsburgh, Pa.), and quantified with Image-Pro Plus software (Media Cybernetics, Bethesda, Md.). Each experiment was repeated at least three times.
Background: A western blot detects proteins with antibodies after separation by electrophoresis.

The target of data set [2] is T1, hTRPA1. Description: Outside-out patch recordings, single channel activity, hTRPA1-expressing HEK293 cells. In kind it is cell-based. The protocol:
Inside-Out and Outside-Out Patch Clamp Recordings on HEK293 Cells. For inside-out recordings in TRPA1-expressing HEK293 cells, pipette resistance was 8-10 MΩ and, the internal solution contains: 126 mM K-gluconate, 10 mM NaCl, 1 mM MgCl2, 10 mM EGTA, 10 mM HEPES, and 2 Na-ATP (adjusted to pH 7.3 with KOH, osmolarity to 295-300 mOsm). The recordings were performed at room temperature in a bath solution (intracellular side) of 140 mM NaCl, 10 mM EGTA, 5 mM KCl, 2 mM CaCl2, 1 mM MgCl2, 10 mM HEPES, 10 mM glucose, adjusted to pH 7.4 with NaOH and osmolarity to 300-310 mOsm (Park et al., Neuron 2014, 82, 47-54). For comparison, outside-out recordings were also performed in TRPA1-expressing HEK293 cells in an extracellular solution of 140 mM NaCl, 5 mM KCl, 2 mM MgCl2, 10 mM HEPES, and 10 mM glucose (adjusted to pH 7.4 with NaOH and osmolarity to 300-310 mOsm). The internal solution contains 140 mM CsCl, 10 mM EGTA, 10 mM HEPES, and mM 2 Mg-ATP, adjusted to pH 7.3 with CsOH. Currents were low-pass filtered at 2 kHz and digitized at a sampling rate of 10 kHz with Digidata-1440A (Axon Instruments). The pClamp10 (Axon Instruments) software was used during experiments and data analysis. Opening and closing transitions of single channels were detected by using 50% of the threshold criterion. All events were carefully checked before the analysis. When superimposed openings were observed, the number of channels in the patch was estimated from the maximal number of superimposed openings. The single-channel open probability (Po) was determined using the following equation: Po=T′/T, where T′ is the total open time for a patch over time T.

Another data set has as its system mice. The data set can be described thus: Persistent itch after intradermal adenovirus (AV) overexpression of hsa-miR-711. Particulars: 10 days after the AV injection, A-967079 50 μM, hsa-miR-711 inhibitor 100 μM, blocking peptide 2 μM. In kind it is in vivo, mouse. The method, then: as §1
miRNA Measurement by Quantitative Real-Time RT-PCR (qPCR). Total RNA was isolated from serum of CTCL mice or adenovirus-treated mice using Qiazol Lysis Reagent (QIAGEN) together with miRNeasy Serum/Plasma Kit (Park et al., Neuron 2014, 82, 47-54). All RNA samples were immediately used or kept at −80° C. until further processing. To convert mature miRNA into cDNA, 6 μl of total RNA solution were reverse transcribed using the miScript II RT Kit (including polyadenylation of miRNAs and reverse transcription using an oligo-dT that binds to a universal RT-sequence). Specific miRNA levels were quantified by qPCR using miScript SYBR Green Kit including miScript miRNA assay for hsa-miR-711, hsa-miR21, hsamiR155, and hsa-miR-326, together with the universal RT primer, according to the manufacturer's protocol (CFX96 Real-Time system, Bio-Rad). Relative quantities of miRNAs were calculated using the Ct value after normalization to control miRNAs. Caenorhabditis elegans miRNA-39 (cel-miRNA-39) was included as spiked-in control for extracellular miRNA.

The mark [3] stands for this setting: high concentrations, 5 and 10 mM, 5 μL.
Where [4] appears, read: low concentrations, 10 and 100 μM.

T1 sequence (O75762 whole entry): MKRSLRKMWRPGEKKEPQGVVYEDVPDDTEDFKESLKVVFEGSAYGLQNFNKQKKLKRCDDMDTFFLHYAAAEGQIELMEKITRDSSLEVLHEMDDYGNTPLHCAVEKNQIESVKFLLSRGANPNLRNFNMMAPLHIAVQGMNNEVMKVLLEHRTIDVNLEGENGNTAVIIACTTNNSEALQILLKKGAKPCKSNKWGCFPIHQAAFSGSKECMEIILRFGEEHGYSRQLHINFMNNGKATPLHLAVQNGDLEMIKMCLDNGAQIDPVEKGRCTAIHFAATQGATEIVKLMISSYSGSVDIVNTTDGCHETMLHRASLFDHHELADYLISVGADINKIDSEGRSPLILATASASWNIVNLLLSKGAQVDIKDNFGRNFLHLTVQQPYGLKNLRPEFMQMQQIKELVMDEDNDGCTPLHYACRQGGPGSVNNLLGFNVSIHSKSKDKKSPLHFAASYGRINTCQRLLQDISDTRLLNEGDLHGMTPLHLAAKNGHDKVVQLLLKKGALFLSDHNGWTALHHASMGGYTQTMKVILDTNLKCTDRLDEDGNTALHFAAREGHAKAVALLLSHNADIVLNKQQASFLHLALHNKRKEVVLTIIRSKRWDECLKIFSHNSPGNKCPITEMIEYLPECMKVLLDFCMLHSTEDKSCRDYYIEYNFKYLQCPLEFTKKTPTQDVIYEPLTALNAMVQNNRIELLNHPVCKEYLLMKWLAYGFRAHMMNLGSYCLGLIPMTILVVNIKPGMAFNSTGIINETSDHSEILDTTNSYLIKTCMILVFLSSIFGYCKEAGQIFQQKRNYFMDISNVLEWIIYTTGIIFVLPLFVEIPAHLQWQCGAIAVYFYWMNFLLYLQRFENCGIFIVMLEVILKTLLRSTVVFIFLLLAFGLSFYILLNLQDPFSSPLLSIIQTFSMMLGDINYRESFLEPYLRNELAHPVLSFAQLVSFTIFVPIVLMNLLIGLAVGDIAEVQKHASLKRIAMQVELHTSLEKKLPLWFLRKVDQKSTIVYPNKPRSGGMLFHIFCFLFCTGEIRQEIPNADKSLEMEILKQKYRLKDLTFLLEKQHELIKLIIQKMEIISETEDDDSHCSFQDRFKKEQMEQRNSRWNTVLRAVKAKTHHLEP

`C=CCN=C=S` [AITC]: in the data set on naive mice (setting [3]), the “scratching after intradermal cheek injection” value is on record as “not scratching” and the “wiping after intradermal cheek injection” value is listed as “induced wiping”. Moreover, in the data set on naive mice (setting [4]), the “itch after intradermal cheek injection” value is reported as “mild itch” and the “pain after intradermal cheek injection” value is reported as “no pain”. In the data set on naive mice (naive mice, 1 mM, 5 μL), the “scratching (itch) after intradermal cheek injection” value is “induced both scratching and wiping”; the “wiping (pain) after intradermal cheek injection” value was “induced both scratching and wiping”.
Turning to “miR-711: mmu-miR-711: gggacccggggagagauguaag (SEQ ID NO: 5) (GGGACCCGGGGAGAGAUGUAAG; chemistry not given here)”, the “scratching after intradermal cheek injection” value is “mild but significant scratching” with naive mice (0.01 and 0.1 mM); 395.2±32.8 bouts per hour with naive mice (highest dose, 5 mM, 5 μL). In addition, in the data set with naive mice (Tlr7−/− mice versus WT), the “miR-711-induced pruritus in knockout mice” value is “unaltered”. Further, in the data set on naive mice (Trpa1−/− mice versus WT), the “miR-711-induced acute itch in knockout mice” value is on record as “abrogated”. Moreover, in the data set on naive mice (all the concentrations tested), the “pain (wiping) after intradermal cheek injection” value is listed as “failed to evoke pain (wiping)”. In the data set with naive mice (compared with chloroquine (CQ) and histamine, first 60 sec), the “onset (latency) of pruritus” value is listed as “very rapid, with a shorter latency”. Besides, the “scratching (itch) after intradermal cheek injection” value was “evoked marked scratching” in the data set with naive mice (naive mice, 1 mM, 5 μL) and “able to evoke pruritus” with naive mice (naive mice, 1 mM, 5 μL, listed as mmu-miR-711). Also, the “competition with binding of biotin-labeled miR-711 to TRPA1” value in the data set with hTRPA1 [1] (10-50 μM added 15 min before biotin-conjugated miR-711 (10 μM)) is “inhibited the binding”. Also, the “single-channel opening events, extracellular surface” value in the data set with hTRPA1 [2] (bath application, miR-711 10 μM, AITC 50 μM, held at −60 mV) is given as “elicited single-channel opening events”. Moreover, the “duration of single channel opening (average open time)” value with hTRPA1 [2] (miR-711 10 μM versus AITC 50 μM) is listed as “significantly shorter”. For the same compound, in the data set with hTRPA1 [2] (mmu-miR-711 versus AITC), the single channel conductance result is on record as “not significant”.
On to `CCC(=N\O)/C(C)=C/c1ccc(F)cc1` [A967079, (1E,3E)-1-(4-Fluorophenyl)-2-methyl-1-pentene-3-one oxime], for which the “effect on hsa-miR-711 AV-induced persistent itch” value in the data set with mice is reported as “Inhibition”. Further, the “block of miR-711-induced single channel activity” value on hTRPA1 [2] (outside-out patch) was “completely blocked”.
With “NH2-FRNELAYPVLTFGQL-COOH (H-FRNELAYPVLTFGQL-OH) [blocking peptide]”, the “effect on hsa-miR-711 AV-induced persistent itch” value with mice is listed as “Inhibition”. Besides, in the data set with hTRPA1 [1] (RNA pull-down), the “disruption of the miR-711/TRPA1 interaction” value is given as “disrupted the miR-711/TRPA1 interaction”.

The values are drawn from patent publication US20210283163A1, “COMPOSITIONS AND METHODS FOR THE TREATMENT OF ACUTE AND CHRONIC PRURITIS” (Duke University, priority 2018, published 2021).
